Data published in US6602274B1, “Targeted transcutaneous cancer therapy” (Light Sciences Corporation, priority 1999, dated 2003).

What was measured:
[1] = systemic administration, clinical use; cited from earlier work
virus-infected T cells = virus-infected T cells treated with BPD, exposed to light; Blood Cells 18:129-40 (1992); cited from earlier work
[2] = test system: colon carcinoma tumor mass; experiment: Photodynamic therapy of a solid tumor with implanted LED light source probes after oral ALA; assay type: in vivo, human
From the text: A patient in the terminal phase of recurrent malignant colon cancer presented with a protruding colon carcinoma tumor mass of approximately 500 grams and approximately 13 cm in diameter, which extended through the patient's dermis. Due to the advanced state of the patient's disease and due to the highly vascularized nature of this tumor mass, resection was not feasible. Further, this large tumor mass presented a significant amount of pain and discomfort to the patient, as well as greatly impairing the patient's ability to lie flat.
Six separate light source probes, each including a linear array of LEDs, were surgically implanted in this large human tumor using standard surgical procedures. An intensity of about 25-30 mW of light from each light source probe (650 nm peak wavelength) was delivered to the tumor for 40 hours following oral administration to the patient of a single dose of an (ALA) photosensitizer agent (60 mg/kg). However, after 18 hours, two of the light source probes became unseated from the tumor mass and were disconnected from the electrical power supply used to energize the LEDs on each probe. The total fluence delivered to the tumor bed during this single extended duration treatment was in excess of 20,000 Joules. […] The extent of this PDT induced necrotic effect in a large volume of tumor tissue was totally unexpected and has not been described before in any PDT studies in subjects in vivo or clinically. Over the course of four weeks following PDT, the necrotic tumor tissue was debrided from the patient resulting in a reduction of approximately 500 grams of tumor tissue.
The fluence rate employed in this Example represented about 150-180 mW/cm^2, with a total fluence more than 20,000 Joules. The preferable fluence rate contemplated more broadly by the present invention is between about 5 mW/cm^2 and about 100 mW/cm^2, more preferably, between about 10 mW/cm^2 and about 75 mW/cm^2, and most preferably, between about 15 mW/cm^2 and about 50 mW/cm^2.

Oc1cccc(-c2c3nc(c(-c4cccc(O)c4)c4ccc([nH]4)c(-c4cccc(O)c4)c4nc(c(-c5cccc(O)c5)c5ccc2[nH]5)CC4)C=C3)c1 [FOSCAN]
duration of general dermal photosensitivity / sensitization of the skin to light [1]: at least several weeks

benzoporphyrin derivatives [BPD]
effect on T cell membrane after exposure to light (virus-infected T cells): holes developed in the T cell membrane and increased in size until the membrane completely decomposed

CCOC(=O)C1=Cc2c3nc(cc4nc(cc5[n-]c(cc6[n-]c2c(C)c6CC)c(C)c5CC)C(C)=C4CC)[C@@H](C)[C@]13CC.[Cl-].[Cl-].[Sn] (racemic) [PURLYTIN]
duration of general dermal photosensitivity / sensitization of the skin to light [1]: at least several weeks

sodium porfimer [PHOTOPHRIN]
duration of general dermal photosensitivity / sensitization of the skin to light [1]: up to six weeks

NCC(=O)CCC(=O)O [ALA, aminolevulinic acid]
Extensive tumor necrosis, radius around each of the light source probes ([2]; one patient, single oral dose 60 mg/kg, 650 nm light, 40 hours of PDT, total fluence in excess of 20,000 Joules): up to 5 cm | collateral damage to surrounding normal tissue ([2]; one patient, single oral dose 60 mg/kg, after 40 hours of PDT): no collateral damage | reduction of tumor tissue (necrotic tumor tissue debrided) ([2]; over the course of four weeks following PDT, tumor mass of approximately 500 grams): approximately 500 grams
